Experimental data as given in US9718790B2, “Triazine derivative and pharmaceutical composition having an analgesic activity comprising the same” (SHIONOGI & CO., LTD., priority 2010, dated 2017).

What follows are molecules tested against human P2X3 receptor (Homo sapiens (Human), UniProt P56373) (assay: Evaluation of human P2X3 receptor inhibitory activity (Fluo-3 calcium fluorescence, FDSS 3000, ATP stimulation)). Settings: C6BU-1 cells stably expressing human P2X3 receptor.
Type: cell-based
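Further: stimulus was 50 nM ATP with fluorescence followed for 3 min, and the response per well was peak post-ATP fluorescence divided by the reading at measurement start.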

human P2X3 receptor, sequence (P56373 whole entry): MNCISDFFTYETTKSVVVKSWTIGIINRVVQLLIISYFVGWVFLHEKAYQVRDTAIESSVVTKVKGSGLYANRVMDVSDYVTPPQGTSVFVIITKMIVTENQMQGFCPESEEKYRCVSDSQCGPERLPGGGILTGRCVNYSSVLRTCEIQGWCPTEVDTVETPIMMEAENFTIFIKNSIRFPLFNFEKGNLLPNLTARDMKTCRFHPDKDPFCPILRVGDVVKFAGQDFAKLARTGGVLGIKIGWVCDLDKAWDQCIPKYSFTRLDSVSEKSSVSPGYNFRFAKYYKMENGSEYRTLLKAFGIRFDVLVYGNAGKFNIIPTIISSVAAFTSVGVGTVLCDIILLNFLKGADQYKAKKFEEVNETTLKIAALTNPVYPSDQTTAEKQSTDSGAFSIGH

In order of rising IC50:
1. CCn1c(=O)[nH]/c(=N\c2ccc(Oc3ccnc(C(=O)NC)c3)cc2)n(Cc2ccc(C)cc2)c1=O [Compound I-2013]  3 nM
2. CCn1c(=O)[nH]/c(=N\c2ccc(Oc3ccnc(C(N)=O)c3)cc2)n(CC2CCC3(CC2)CC3)c1=O [Compound I-2176]  4 nM
3. CCn1c(=O)[nH]/c(=N\c2ccc(Oc3ccc(S(N)(=O)=O)cc3)cc2)n(Cc2ccc(C)cc2)c1=O [Compound I-2032]  4 nM
4. C=Cc1cc(/N=c2\[nH]c(=O)n(CCC(=O)OCC)c(=O)n2Cc2ccc(C)cc2)ccc1OC(C)C [Compound I-1190]  5 nM
5. COC(=O)C(C)(C)Cn1c(=O)[nH]/c(=N\c2cccc(C(F)(F)F)c2)n(Cc2ccc(C)cc2)c1=O [Compound I-1258]  8 nM
6. CC(C)Cc1ccc(/N=c2\[nH]c(=O)n(C[C@H](C)C(=O)O)c(=O)n2Cc2ccc(Cl)cc2)cc1F [Compound I-1257]  9 nM
7. CC(C)Oc1ccc(/N=c2\[nH]c(=O)n([C@@H]3C[C@H]3C(=O)OC(C)(C)C)c(=O)n2Cc2ccc(Cl)cc2)cc1F [Compound I-0604]  13 nM
8. CO[C@@H](Cn1c(=O)[nH]/c(=N\c2ccc(OC(C)C)c(C)c2)n(Cc2ccc(Cl)cc2)c1=O)C(=O)O [Compound I-0807, (S)-1-(4-chlorobenzyl)-6-(3-mehyl-4-isopropoxyphenylimino)-3-(2-hydroxycarbonyl-2-methoxyethyl)-1,3,5-triazinane-2,4-dion]  13 nM
9. CCCc1ccc(/N=c2\[nH]c(=O)n(C[C@H](C)C(=O)OC)c(=O)n2Cc2ccc(C)cc2)cc1Cl [Compound I-1277]  15 nM
10. Cc1cc(/N=c2\[nH]c(=O)n(C[C@H](C)C(=O)NCC(F)(F)F)c(=O)n2Cc2ccc(Cl)cc2)ccc1OC(C)C [Compound I-0726]  16 nM
11. CCn1c(=O)[nH]/c(=N\c2ccc(Oc3ccc(F)c(C(=O)OC)c3)cc2)n(Cc2ccc(Cl)cc2)c1=O [Compound I-2057]  21 nM
12. NC(=O)CCn1c(=O)[nH]/c(=N\c2ccc(OC3CCC3)cc2)n(Cc2ccc(Cl)cc2)c1=O [Compound I-1915]  23 nM
13. Cc1cc(/N=c2\[nH]c(=O)n(Cc3cccn(CCOC4CCCCO4)c3=O)c(=O)n2Cc2ccc(Cl)cc2)ccc1OC(C)C (stereo not drawn) [Compound I-0712]  25 nM
14. Cc1cc(/N=c2\[nH]c(=O)n(CC3(C(=O)O)CC3)c(=O)n2Cc2ccc(Cl)cc2)ccc1OC(C)C [Compound I-0698]  26 nM
15. CCCc1ccc(/N=c2\[nH]c(=O)n(C[C@H](C)C(=O)OC)c(=O)n2Cc2ccc(Cl)cc2)cc1C [Compound I-1211]  30 nM
16. CCn1c(=O)[nH]/c(=N\c2ccc(Oc3nc(C(=O)O)co3)cc2)n(Cc2ccc(Cl)cc2)c1=O [Compound I-2190]  33 nM
17. CCCCc1ccc(/N=c2\[nH]c(=O)n(C[C@H](C)C(=O)OC)c(=O)n2Cc2ccc(Cl)cc2)cc1 [Compound I-0620]  44 nM
18. COC(=O)[C@@H](C)Cn1c(=O)[nH]/c(=N\c2ccc(CC(C)C)c(Cl)c2)n(Cc2ccc(C)nc2)c1=O [Compound I-1464]  70 nM
19. CCn1c(=O)[nH]/c(=N\c2ccc(OCCc3ccccn3)cc2)n(Cc2ccc(Cl)cc2)c1=O [Compound I-2201]  92 nM

Same assay, conditions: C6BU-1 cells stably expressing human P2X3 receptor, Fluo-3 fluorescence, FDSS 3000

In order of rising IC50:
1. O=c1[nH]/c(=N\c2ccc(Oc3ccnc(O)c3)cc2)n(Cc2ccc(Cl)cc2)c(=O)n1CC(CO)CO [Compound I-1714]  3 nM
2. CC1(C)OC[C@H](Cn2c(=O)[nH]/c(=N\c3ccc(OCC4CC4)cc3)n(Cc3ccc(Cl)cc3)c2=O)O1 [Compound I-1854]  4 nM
3. Cc1nc2ccc(/N=c3\[nH]c(=O)n(CCC4COC(C)(C)OC4)c(=O)n3Cc3ccc(Cl)cc3)cc2s1 [Compound I-1852]  5 nM
4. CCCOc1ccc(/N=c2\[nH]c(=O)n(C[C@@H](CC)C(=O)OC)c(=O)n2Cc2ccc(Cl)cc2)cc1 [Compound I-1038]  6 nM
5. CC(C)=Cc1ccc(/N=c2\[nH]c(=O)n(C[C@H](C)C(=O)O)c(=O)n2Cc2ccc(C)cc2)cc1F [Compound I-1174]  27 nM
6. Cc1ccc(Cn2c(=O)n([C@@H](C)[C@@H](C)C(=O)O)c(=O)[nH]/c2=N\c2ccc(OC(C)C)c(C)c2)cc1 [Compound I-0930]  30 nM
7. CC(C)Oc1ccc(/N=c2\[nH]c(=O)n(CC(=O)NS(C)(=O)=O)c(=O)n2Cc2ccc(Cl)cc2)cc1Cl [Compound I-1876]  35 nM
8. Cc1cc(/N=c2\[nH]c(=O)n(CC3CNC3)c(=O)n2Cc2ccc(Cl)cc2)ccc1OC(C)C [Compound I-1654]  66 nM
9. Cc1cc(/N=c2\[nH]c(=O)n(CC(=O)C(=O)O)c(=O)n2Cc2ccc(Cl)cc2)ccc1OC(C)C [Compound I-1009]  69 nM
10. Cc1ccc(Cn2c(=O)n(CCC(=O)O)c(=O)[nH]/c2=N\c2ccc(OC3CC3)c(Cl)c2)cc1 [Compound I-1608]  100 nM
11. COC(=O)[C@@H](C)Cn1c(=O)[nH]/c(=N\c2ccc(OC(C)C)c(OC(C)C)c2)n(Cc2ccc(C)cc2)c1=O [Compound I-1130]  133 nM
12. Cc1cc(/N=c2\[nH]c(=O)n(C3CCN(CC(=O)O)CC3)c(=O)n2Cc2ccc(Cl)cc2)ccc1OC(C)C [Compound I-1649]  285 nM
13. COC(=O)[C@@H](C)Cn1c(=O)[nH]/c(=N\c2ccc(N3CCCC3)cc2)n(Cc2ccc(C)cc2)c1=O [Compound I-1086]  291 nM
14. Cc1ccc(Cn2c(=O)n(CCC(=O)O)c(=O)[nH]/c2=N\c2ccc(OCCC(C)C)cc2)cc1 [Compound I-1070]  471 nM
15. C[C@@H](C(=O)O)[C@H](C)n1c(=O)[nH]/c(=N\c2ccc3c(c2)CC/C3=N\O)n(Cc2ccc(Cl)cc2)c1=O [Compound I-1777]  636 nM
16. C[C@@H](C(=O)O)[C@H](C)n1c(=O)[nH]/c(=N\c2ccc3c(c2)sc(=O)n3CC(F)(F)F)n(Cc2ccc(Cl)cc2)c1=O [Compound I-1780]  932 nM

Same assay, conditions: human P2X3 receptor, Test Example 1

In order of falling IC50:
1. Cc1nnc(Oc2ccc(/N=c3\[nH]c(=O)n(C[C@H](O)CO)c(=O)n3Cc3ccc(Cl)cc3)cc2)s1 [Compound I-2511]  235 nM
2. CCCOc1ccc(/N=c2\[nH]c(=O)n(C[C@H](CC)C(=O)O)c(=O)n2Cc2ccc(C)cc2)cc1 [Compound I-0885]  87 nM
3. CCOc1ccc(/N=c2\[nH]c(=O)n([C@H](C)CC(=O)OC)c(=O)n2Cc2ccc(C)cc2)cc1Cl [Compound I-0876]  23 nM
4. COC(=O)[C@@H](C)Cn1c(=O)[nH]/c(=N\c2ccc(OC(C)C)c(C)c2)n(Cc2ccc(Br)cc2)c1=O [Compound I-0865]  17 nM
5. Cn1c(=O)[nH]/c(=N\c2ccc(Oc3cncc(C(=O)O)n3)cc2)n(Cc2ccc(Cl)cc2)c1=O [Compound I-2476]  13 nM
6. CCc1nc2ccc(/N=c3\[nH]c(=O)n(CC4(C(=O)O)CC4)c(=O)n3Cc3ccc(Cl)cc3)cc2s1 [Compound I-1553]  11 nM
7. Cc1ccc(Cn2c(=O)n(C[C@H](C)C(=O)O)c(=O)[nH]/c2=N\c2ccc(CC3CC3)c(Cl)c2)cc1 [Compound I-1513]  10 nM
8. Cc1ccc(Cn2c(=O)n(C)c(=O)[nH]/c2=N\c2ccc(Oc3ccc(C#N)cn3)cc2)cc1 [Compound I-2393]  10 nM
9. CC[C@H](C)n1c(=O)[nH]/c(=N\c2ccc(Oc3cncc(C(=O)O)c3)cc2)n(Cc2ccc(Cl)cc2)c1=O [Compound I-2481]  8 nM
10. Cc1ccc(Cn2c(=O)n(CCCO)c(=O)[nH]/c2=N\c2ccc(Oc3cccc(C#N)n3)cc2)cc1 [Compound I-2640]  2 nM
